Reference: patent US11779590B2, “AMP-activated protein kinase activating compounds and uses thereof” (Skylark Bioscience LLC, priority 2020, dated 2023)

Tests used:
[1] = dosed orally; cited from earlier work
HEK293 cells = assay: HEK293 cytotoxicity assay (CC50, CellTiterGlo); type: cell-based, human
From the text: Some exemplary assays and examples for assessing therapeutic efficacy, e.g., anticancer effects, of exemplary compounds of the invention are described herein or well known in the art. HEK293 is a human kidney cell line, and efficacy on HEK293 is considered to be predictive of usefulness for therapeutic treatment.
HEK293 cells were obtained from American Type Culture Collection (ATCC) (Rockville Maryland). Cells were maintained in Dulbecco's modified Eagle's medium (DMEM) (Invitrogen, Carlsbad, CA) with 10% fetal bovine serum (FBS), 10 mM HEPES and 1 mM sodium pyruvate. Cells were grown at 37° C. in a humidified incubator with a gas phase of 5% C02. Cells were grown for 24 hours in a Tripleflask (NUNC) to ˜95% confluence and then resuspended for dispensing at 125,000 cells/mL of DMEM, 10% FBS, 10 mM Hepes and 1 mM sodium pyruvate.
HEK293 cells were seeded in 96 well microtiter plates at 10000 cells/well. After 24 hours of incubation an equal volume of fresh media containing test compounds at given concentrations was added. Plates were then incubated and cells were allowed to proliferate for 48 hours at 37° C., 95% humidity, and 5% C02. […] A solution of Promega CellTiterGlo (100 microliters) was added by Thermo Combi and the plates were allowed to sit for 10 minutes before reading on a Perkin-Elmer EnVision with US LUM settings for 0.1 sec per well. […]

## NC(=O)c1ncn([C@@H]2O[C@H](CO)[C@@H](O)[C@H]2O)c1N [AICAR, 5-amino-1-D-ribofuranosyl-1H-imidazole-4-carboxamide]
[1]
  bioavailability: very low

## COP(=O)(OC)OC[C@H]1O[C@@H](n2cnc(C(N)=O)c2N)[C@H](O)[C@@H]1O [SB00024]
HEK293 cells; at 500 uM
  activity on HEK293 cells (CC50 assay): inactive

## NC(=O)c1ncn([C@@H]2O[C@H](COP(=O)(O)Oc3ccc([N+](=O)[O-])cc3)[C@@H](O)[C@H]2O)c1N [SB00039]
HEK293 cells; ratio of potency (CC50) versus AICAR
  potency relative to AICAR on HEK293 cells: roughly 100 times
